Measured values published in US20230365577A1, “Photodynamic Therapy and Diagnosis” (RMW CHO Group Limited, priority 2020, published 2023).
Where a name gives a salt, the structure may show the parent alone. Read-outs that look alike come from different tables or passages of the source.

How the values were obtained:
SKOV3 cells = experiment: Cellular uptake and retention (intrinsic fluorescence); assay type: cell-based, Human; details: for Uptake and clearance, comparison of the two salt forms: SKOV3, 24 hours uptake then 24 hours clearance
Procedure: Based on the increased phototoxicity of compound 1c versus compound 1, it was assessed whether this salt substitution alters cellular uptake or retention over time. SKOV3 cells were incubated for up 24 hours in the presence of either compound 1 or 1c (as previously described). At defined time intervals (FIG. 5) the media was aspirated, replaced with sterile PBS, and cells imaged for fluorescence (Ex 405 nm/Em 660 nm) using a Cytation 3 Multimode Plate Reader (Biotek). After 24 hours the media was aspirated, replaced with fresh media and the loss of cellular fluorescence similarly monitored. All images (minimum 100 cells per time point) were then quantitatively analysed (Gen5.0 software) and an average fluorescence/cell/time point determined. Average fluorescence measurements were normalised against the maximum average value measured for each photosensitizer, and plotted as percent total fluorescence (mean±SD) overtime.
The uptake and retention of compounds 1 and 2 was compared in SKOV3 cancer cells over a 48 hour period. SKOV3 cells were incubated for up 24 hours in the presence of either compound 1 or 2 (as previously described). At defined time intervals (FIG. 6) the media was aspirated, replaced with sterile PBS, and cells imaged for fluorescence (Ex 405 nm/Em 660 nm) using a Cytation 3 Multimode Plate Reader (Biotek). After 24 hours the media was aspirated, replaced with fresh media and the loss of cellular fluorescence similarly monitored. All images (minimum 100 cells per time point) were then quantitatively analysed (Gen5.0 software) and an average fluorescence/cell/time point determined. Average fluorescence measurements were normalised against the maximum average value measured for each photosensitizer, and plotted as percent total fluorescence (mean±SD) over time.
Phyllochlorin was functionalised with saccharidyl groups (glucose or mannose) using various configurations, and the effects on rate of uptake by cells assessed over a 4 hour incubation period as above. The rate of uptake of saccharidyl-conjugated phyllochlorin analogues exceeded that of unconjugated compound 2 (examples shown in FIG. 7); after 2 hours, saccharidyl-conjugated phyllochlorin analogues (compounds 6, 8 and 17) had reached 57-68% of their maximal uptake compared to 37% for compound 2 (FIG. 7A). By 4 hours total uptake was similar, and there was no apparent difference in cellular distribution between glucose (compounds 6 and 8) and mannose (compound 17) linked species (FIG. 7B).

[1] = test system: SKOV3 ovarian cancer cells; experiment: Phototoxicity in SKOV3 cells (652 nm laser, AlamarBlue viability); assay type: cell-based, Human; details: read-out: Cellular Toxicity: Phototoxicity IC90, SKOV3, 24 h uptake, 652 nm laser 50 mW/cm2 5 mins (15 J/cm2), viability 24 h later
Procedure: (§1) Human ovarian cancer cell line SKOV3 (ATCC #HTB-77) was maintained in Dulbecco's Modified Eagle Medium/Nutrient Mixture F-12 (DMEM/F-12), supplemented with 10% v/v Fetal Bovine Serum, 100 U/mL penicillin and 100 µg/mL streptomycin. Monolayer cultures were grown in a humidified incubator at 37° C. with 5% CO2.
(§2) For in vitro experiments, photosensitizers (stock solution 5.5 mM in 100% DMSO) were diluted in cell culture media (Dulbecco's Modified Eagle Medium/Nutrient Mixture F-12) supplemented with 10% v/v Fetal Bovine Serum, 100 U/mL penicillin, 100 µg/mL streptomycin and 10% w/v Kollidon-12. Once cells had reached ˜80% confluence, spent media was replaced with media containing photosensitizer and cells were incubated for the desired period of time to allow photosensitizer uptake.
(§3) SKOV3 cells were seeded in 96-well black wall plates (Greiner #655090) at a cell density of 5000 cells in 100 μl culture medium per well. On reaching ˜60% confluence, so media was aspirated and replaced with fresh media containing the relevant phyllochlorin analogue from 0-100 μM in DMSO. Cells were incubated for a further 24 hours, allowing uptake of phyllochlorin analogues.
To test for phototoxicity, cells incubated with phyllochlorin analogues (0-10 μM in DMSO) had culture media replaced after 24 hours (as above) and were then exposed to a 652 nm laser (Invion) with laser density at 50 mW/cm^2 for 5 mins (total 15 J/cm^2). Following activation, cells were cultured for a further 24 hours. Media was then replaced with fresh media containing AlamarBlue, and % viable cells remaining assessed as above. Controls included cells treated with phyllochlorin analogues but not activated by laser light; cells without phyllochlorin analogue treatment but with laser light; and untreated controls. All measurements were made in quadruplicate.
(§4) For comparative purposes, phyllochlorin analogues were tested and compared against both chlorin e4 disodium and Talaporfin sodium, a clinically approved photosensitizer used in the photodynamic treatment of lung cancers. Phototoxicity IC90 values and dark toxicity IC10 values were calculated using a log[inhibitor]-vs normalized response dose curve with variable slope, using the formula Y=100/(1+(IC90/X)^HillSlope (phototoxicity IC90) or Y=100/(1+(IC10/X)^HillSlope (dark toxicity IC10).

[2] = test system: SKOV3 ovarian cancer cells; experiment: Inherent cytotoxicity (dark toxicity) in SKOV3 cells (AlamarBlue viability); assay type: cell-based, Human; details: human, 24 h
Procedure: as §1, §2
as §3, with “confluence,” for “confluence, so”
To test for inherent cytotoxicity (i.e. “dark toxicity”) of the phyllochlorin analogue the culture media was replaced after 24 hours with fresh media containing 10% (v/v) AlamarBlue Cell Viability Reagent (ThermoFisher) and cells incubated at 37° C. for 6 hours. Untreated cells were used as a control. Fluorescence (Ex 555 nm/Em 596 nm) was measured using a Cytation 3 Multimode Plate Reader (Biotek), and cytotoxicity assessed according to the % viable cells remaining. All measurements were made in quadruplicate.
as §4

[3] = Singlet oxygen (1O2) production rate; assay type: physicochemical
Source text: The production of singlet oxygen (^1O2), cellular phototoxicity and light-independent cytotoxicity (“dark toxicity”) of a number of phyllochlorin analogues were compared against chlorin e4 disodium and Talaporfin sodium (mono-L-aspartyl chlorin e6), the active ingredient of Laserphyrin™.

[4] = test system: 4T1 murine breast cancer cells; experiment: Tumour localisation and retention, model 1 (subcutaneous 4T1 tumours); assay type: in vivo, Balb/C wild type mice; details: 0.1 mg/kg IT, primary breast tumours, IVIS fluorescence
Procedure: Model 1 used Balb/C wild type mice implanted subcutaneously with 10^4×4T1 murine breast cancer cells. When tumours reached a palpable size (˜3-6 mm diameter) mice received compound 6 by either oral gavage (ORAL: 2.5 mg/kg), intravenous injection (IV: 1.0 mg/kg), or intratumoral injection (IT: 1.0 mg/kg in […]). To establish compound 6 localisation, mice were imaged using an IVIS Lumina III In Vivo Imaging System (Perkin Elmer) to detect fluorescence at 660 nm when illuminated under blue (400-460 nm) light.
In a second experiment, the localisation of compound 6 at 24 hours post-administration was compared to that of Talaporfin sodium and 5-Aminolevulinic acid (5-ALA), with all compounds injected at 0.1 mg/kg IT. Fluorescence measurements were made using an IVIS Lumina III instrument (as above).

[5] = Homo sapiens, SK-OV-3, light or radiation study

Singlet Oxygen Production (slope) 1O2 [3] | Compound | Cellular Toxicity: Dark toxicity IC10 [2] [µM] | IC90 [1, 5] [nM] | further results
 | C=Cc1c(C)c2cc3nc(c(C)c4cc(C)c(cc5nc(cc1[nH]2)C(C)=C5CC)[nH]4)[C@@H](CCC(=O)O)[C@@H]3C [Compound 1, phyllochlorin sodium salt] | 21.96 |  | Uptake and clearance, comparison of the two salt forms (SKOV3 cells): no significant difference; Fluorescence lost from cells (SKOV3 cells; SKOV3, within 4 hours after replacing media): 80%; IC90 ([1]; sodium salt): 350 nM; Singlet Oxygen Production (slope) 1O2 ([3]; sodium salt): 1445.0
2141.0 | C=Cc1c(C)c2cc3nc(c(C)c4cc(C)c(cc5nc(cc1[nH]2)C(C)=C5CC)[nH]4)[C@@H](CCC(=O)OC)[C@@H]3C [Compound 2, phyllochlorin methyl ester] | 39.62 | 260 | Percent of maximal uptake (SKOV3 cells; SKOV3, after 2 hours incubation): 37%; Compound remaining within cells (SKOV3 cells; SKOV3, after 24 hours clearance): > 50%
 | NCC(=O)CCC(=O)O [Compound 5-ALA, 5-Aminolevulinic acid, reference compound] |  |  | Tumour localisation at 24 hours post-administration [4]: could not be accurately detected
1293.0 | C=Cc1c(C)c2cc3nc(c(C)c4cc(C)c(cc5nc(cc1[nH]2)C(C)=C5CC)[nH]4)[C@@H](CCC(=O)N(C)CCOCCO[C@@H]1O[C@H](CO)[C@@H](O)[C@H](O)[C@H]1O)[C@@H]3C [Compound 14, 3-((7S,8S)-18-ethyl-2,5,8,12,17-pentamethyl-13-vinyl-7H,8H-porphyrin-7-yl)-N-methyl-N-(2-(2-(((2R,3R,4S,5S,6R)-3,4,5-trihydroxy-6-(hydroxymethyl)tetrahydro-2H-pyran-2-yl)oxy)ethoxy)ethyl)propanamide] | 22.79 | 170 | 
976.4 | C=Cc1c(C)c2cc3nc(c(C)c4cc(C)c(cc5nc(cc1[nH]2)C(C)=C5CC)[nH]4)[C@@H](CCC(=O)N(C)CCCO[C@@H]1O[C@H](CO)[C@@H](O)[C@H](O)[C@H]1O)[C@@H]3C [Compound 15, 3-((7S,8S)-18-ethyl-2,5,8,12,17-pentamethyl-13-vinyl-7H,8H-porphyrin-7-yl)-N-methyl-N-(3-(((2R,3R,4S,5S,6R)-3,4,5-trihydroxy-6-(hydroxymethyl)tetrahydro-2H-pyran-2-yl)oxy)propyl)propanamide] | 14.60 | 230 | 
884.1 | C=Cc1c(C)c2cc3nc(c(C)c4cc(C)c(cc5nc(cc1[nH]2)C(C)=C5CC)[nH]4)[C@@H](CCC(=O)N(C)CCCS[C@H]1O[C@H](CO)[C@@H](O)[C@H](O)[C@@H]1O)[C@@H]3C [Compound 16, phyllochlorin α-D-1-thiomannose-N-methylpropylamide conjugate] | 28.64 | 250 | 
1265.0 | C=Cc1c(C)c2cc3nc(c(C)c4cc(C)c(cc5nc(cc1[nH]2)C(C)=C5CC)[nH]4)[C@@H](CCC(=O)N(C)CCCS[C@@H]1O[C@H](CO)[C@@H](O)[C@H](O)[C@@H]1O)[C@@H]3C [Compound 17, phyllochlorin β-D-1-thiomannose-N-methylpropylamide conjugate] | 76.27 | 220 | 
1060.0 | C=Cc1c(C)c2cc3nc(c(C)c4cc(C)c(cc5nc(cc1[nH]2)C(C)=C5CC)[nH]4)[C@@H](CCC(=O)N(C)CCOCCO)[C@@H]3C [Compound 18, 3-((7S,8S)-18-ethyl-2,5,8,12,17-pentamethyl-13-vinyl-7H,8H-porphyrin-7-yl)-N-(2-(2-hydroxyethoxy)ethyl)-N-methylpropanamide] | 32.30 | 100 | 
1210.0 | C=Cc1c(C)c2cc3nc(c(C)c4cc(C)c(cc5nc(cc1[nH]2)C(C)=C5CC)[nH]4)[C@@H](CCC(=O)NCCOCCO[C@@H]1O[C@H](CO)[C@@H](O)[C@H](O)[C@H]1O)[C@@H]3C [Compound 20, 3-((7S,8S)-18-ethyl-2,5,8,12,17-pentamethyl-13-vinyl-7H,8H-porphyrin-7-yl)-N-(2-(2-(((2R,3R,4S,5S,6R)-3,4,5-trihydroxy-6-(hydroxymethyl)tetrahydro-2H-pyran-2-yl)oxy)ethoxy)ethyl)propanamide] | 46.23 | 230 | 
736.7 | C=Cc1c(C)c2cc3nc(c(CC(=O)N[C@@H](CC(=O)O)C(=O)O)c4[nH]c(cc5nc(cc1[nH]2)C(C)=C5CC)c(C)c4C(=O)O)[C@@H](CCC(=O)O)[C@@H]3C [Talaporfin sodium, mono-L-aspartyl chlorin e6, reference compound] | 11.10 | 22800 | 

Compound | Singlet Oxygen Production (slope) 1O2 [3] | Cellular Toxicity: Dark toxicity IC10 [2] [µM] | IC90 [1, 5] [nM] | further results
C=Cc1c(C)c2cc3nc(c(C)c4cc(C)c(cc5nc(cc1[nH]2)C(C)=C5CC)[nH]4)[C@@H](CCC(=O)O)[C@@H]3C [Compound 1c, phyllochlorin choline salt] | 1229.0 | 58.01 |  | Uptake and clearance, comparison of the two salt forms (SKOV3 cells): no significant difference; IC90 [1]: 210 nM
